Key:
[1] = In vitro nitroglycerin permeation across mouse skin in Franz diffusion cells; assay type: in vitro ADME
Procedure: (§1) With the purpose of analysing the effect of sorbitan monooleate on nitroglycerin permeation kinetics, permeation of nitroglycerin from transdermal patches containing different concentrations of sorbitan monooleate was measured across mouse skin and human skin in Franz diffusion cells (produced by Hanson-Research).
(§2) The test was undertaken as described in the Italian Official Pharmacopoeia XI ed. and the European Pharmacopoeia 4th ed.
The permeation studies were conducted using Franz diffusion cells modified with an aperture 15 mm in diameter (membrane surface area 1.766 cm^2) and 7 ml cell volume. A phosphate buffer at pH 7 maintained under constant agitation was used as receptor fluid within the cell. […]
Within an hour of removal from the animal the skin samples were placed over the aperture of the cells to form a membrane and the transdermal patches to be analysed were each placed over a membrane and fastened with clips.
At determined intervals 300 μl of receptor solution were withdrawn and replaced each time with an equivalent volume of phosphate buffer.
The quantity of nitroglycerin in each sample was determined by means of HPLC analysis, using a 50:50 methanol/water mixture as mobile phase.
The results obtained for each patch were analyzed statistically using the t-test for independent samples. […]

[2] = In vitro nitroglycerin permeation across human skin (SCE membranes) in Franz diffusion cells; assay type: in vitro ADME
Procedure: as §1, §2
Samples of abdominal skin were obtained from the same donor by means of a surgical procedure.
Membranes consisting of the stratum corneum and epidermis (SCE membranes) were prepared by immersing the skin into distilled water at 60° C.±1° C. for one minute followed by their removal from the dermis. The membranes were dried in a dryer at about 25% ambient humidity, wrapped in aluminium sheets and maintained at a temperature of about −20° C.±1° C. until required. Dried membrane samples were rehydrated at ambient temperature by immersing in a saline solution for 16 hours. […]
The results obtained were analysed statistically using the t-test for independent samples.
The steady-state flux was then determined for each patch by linear regression of the cumulative quantity of drug permeated across the skin (μg/cm^2) as a function of time (h). […]

sorbitan monooleate
Action as absorption enhancer [1]: does not act as an absorption enhancer | Action as absorption enhancer [2]: does not act as an absorption enhancer

From patent US9549902B2, “Transdermal patch” (BOUTY S.P.A., priority 2005, dated 2017)
